Data reported in patent publication US20240092795A1, “PYRIDINE COMPOUNDS AS ALLOSTERIC SHP2 INHIBITORS” (Revolution Medicines, Inc., priority 2017, published 2024).

Molecular target: SHP2 (Homo sapiens (Human), UniProt Q06124)
Test: SHP2 Allosteric Inhibition Assay (DiFMUP prompt fluorescence)
Type: biochemical
Details: 0.2 nM SHP2 with 0.5 μM Activating Peptide 1 or 2, surrogate substrate DiFMUP, 25° C.; read-out: SHP2 Allosteric Biochem: IC50
Description: Without wishing to be bound by theory, SHP is allosterically activated through binding of bis-tyrosyl-phosphorylated peptides to its Src Homology 2 (SH2) domains. The latter activation step leads to the release of the auto-inhibitory interface of SHP2, which in turn renders the SHP2 protein tyrosine phosphatase (PTP) active and available for substrate recognition and reaction catalysis. The catalytic activity of SHP2 was monitored using the surrogate substrate DiFMUP in a prompt fluorescence assay format.
The phosphatase reactions were performed at room temperature in 96-well black polystyrene plate, flat bottom, non-binding surface (Corning, Cat #3650) using a final reaction volume of 100 μL and the following assay buffer conditions: 50 mM HEPES, pH 7.2, 100 mM NaCl, 0.5 mM EDTA, 0.05% P-20, 1 mM DTT.
The inhibition of SHP2 by compounds of the disclosure (concentrations varying from 0.00005-10 μM) was monitored using an assay in which 0.2 nM of SHP2 was incubated with 0.5 μM of Activating Peptide 1 (sequence: H2N-LN(pY)IDLDLV(dPEG8)LST (pY)ASINFQK-amide) or Activating Peptide 2 (sequence: H2N-LN(pY)AQLWHA(dPEG8) LTI(pY)ATIRRF-amide). After 30-60-minutes incubation at 25° C., the surrogate substrate DiFMUP (Invitrogen, Cat #D6567) was added to the reaction and activity was determined by a kinetic read using a microplate reader (Envision, Perkin-Elmer or Spectramax M5, Molecular Devices). The excitation and emission wavelengths were 340 nm and 450 nm, respectively. Initial rates were determined from a linear fit of the data, and the inhibitor dose response curves were analyzed using normalized ICso regression curve fitting with control based normalization.

| Compound | IC50 |
| --- | --- |
| N[C@@H]1CCCC12CCN(c1cc(O)c(-c3cccc(Cl)c3Cl)nc1CO)CC2 [Example 1, 5-[(4R)-4-amino-8-azaspiro[4.5]decan-8-yl]-2-(2,3-dichlorophenyl)-6-(hydroxymethyl)pyridin-3-ol] | 210 nM |
| N[C@@H]1CCCC12CCN(c1cc(O)c(Sc3cccc(Cl)c3Cl)nc1CO)CC2 [Example 2, 5-[(1R)-1-amino-8-azaspiro[4.5]decan-8-yl]-2-[(2,3-dichlorophenyl)sulfanyl]-6-(hydroxymethyl)pyridin-3-ol] | 37 nM |

Next, values leading:

| IC50 | Compound |
| --- | --- |
| 740 nM | N[C@@H]1CCCC12CCN(c1cnc(-c3cccc(Cl)c3Cl)c(O)c1)CC2 [Example 3, 5-[(1R)-1-amino-8-azaspiro[4.5]decan-8-yl]-2-(2,3-dichlorophenyl)pyridin-3-ol] |
| 69 nM | Cc1cc(N2CCC3(CCC[C@H]3N)CC2)c(CO)nc1-c1cccc(Cl)c1Cl [Example 4, {3-[(1R)-1-amino-8-azaspiro[4.5]decan-8-yl]-6-(2,3-dichlorophenyl)-5-methylpyridin-2-yl}methanol] |
| 210 nM | Cc1cc(N2CCC3(CCC[C@H]3N)CC2)cnc1-c1cccc(Cl)c1Cl [Example 5, (1R)-8-[6-(2,3-dichlorophenyl)-5-methylpyridin-3-yl]-8-azaspiro[4.5]decan-1-amine] |
